Source: ChEMBL document CHEMBL4251720, “Estrogen Receptor (ER) Subtype Selectivity Identifies 8-Prenylapigenin as an ERβ Agonist from Glycyrrhiza inflata and Highlights the Importance of Chemical and Biological Authentication” (J Nat Prod, 2018)
pEC50: −log10 of the molar value. Values belong to the compound of their own block, whether it stands above or below them.

Tests used:
Estrogen receptor beta [1] = biological target: T1, Estrogen receptor beta (Homo sapiens, UniProt Q92731)
Description: (§1) Estrogenic activity at ERbeta (unknown origin) expressed in human MDA-MB-231/beta41 cells after 18 hrs by renilla luciferase reporter gene assay

Estrogen receptor beta [2] = biological target: T1, Estrogen receptor beta; remark: listed apart in the source
Description: as §1

[3] = biological target: T2, Estrogen receptor alpha (ERalpha) (Homo sapiens, UniProt P03372); test: in vitro; conditions: Ishikawa cells, probe p-nitrophenol (so in the source) as alkaline phosphatase substrate
T2 sequence (P03372 whole entry): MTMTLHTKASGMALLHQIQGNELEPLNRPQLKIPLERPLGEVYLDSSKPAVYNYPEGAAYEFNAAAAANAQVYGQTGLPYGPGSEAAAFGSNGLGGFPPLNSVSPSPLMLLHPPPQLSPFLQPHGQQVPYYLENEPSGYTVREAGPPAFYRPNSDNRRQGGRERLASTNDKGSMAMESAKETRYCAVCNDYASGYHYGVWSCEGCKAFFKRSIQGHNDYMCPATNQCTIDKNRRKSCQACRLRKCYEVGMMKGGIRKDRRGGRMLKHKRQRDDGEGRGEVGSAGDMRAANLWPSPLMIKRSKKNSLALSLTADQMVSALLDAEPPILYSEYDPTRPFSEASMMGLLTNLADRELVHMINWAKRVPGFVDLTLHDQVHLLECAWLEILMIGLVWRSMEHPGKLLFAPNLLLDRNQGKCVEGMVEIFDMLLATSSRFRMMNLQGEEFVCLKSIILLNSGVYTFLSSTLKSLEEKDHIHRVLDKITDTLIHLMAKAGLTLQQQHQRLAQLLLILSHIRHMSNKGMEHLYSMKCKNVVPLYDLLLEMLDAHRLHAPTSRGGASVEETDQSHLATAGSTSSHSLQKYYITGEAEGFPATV
Description: Estrogenic activity at ERalpha in human Ishikawa cells assessed as induction of alkaline phosphatase activity using p-nitrophenol as substrate treated for 96 hrs followed by substrate addition by spectrophotometric method relative to estradiol

Estrogen receptor [4] = biological target: T3, Estrogen receptor (Homo sapiens, UniProt P03372)
T3 sequence (P03372 whole entry): T2 sequence (P03372 whole entry)
Description: Estrogenic activity at ERalpha in human Ishikawa cells assessed as induction of alkaline phosphatase activity using p-nitrophenol as substrate treated for 96 hrs followed by substrate addition by spectrophotometric method

Estrogen receptor [5] = biological target: T3, Estrogen receptor; test: Estrogenic activity at ERalpha in human Ishikawa cells assessed as induction of alkaline phosphatase activity at 0.01 to 1 uM using […] as substrate treated for 96 hrs followed by substrate addition by spectrophotometric method; format: cell-based

T1 sequence (Q92731 whole entry): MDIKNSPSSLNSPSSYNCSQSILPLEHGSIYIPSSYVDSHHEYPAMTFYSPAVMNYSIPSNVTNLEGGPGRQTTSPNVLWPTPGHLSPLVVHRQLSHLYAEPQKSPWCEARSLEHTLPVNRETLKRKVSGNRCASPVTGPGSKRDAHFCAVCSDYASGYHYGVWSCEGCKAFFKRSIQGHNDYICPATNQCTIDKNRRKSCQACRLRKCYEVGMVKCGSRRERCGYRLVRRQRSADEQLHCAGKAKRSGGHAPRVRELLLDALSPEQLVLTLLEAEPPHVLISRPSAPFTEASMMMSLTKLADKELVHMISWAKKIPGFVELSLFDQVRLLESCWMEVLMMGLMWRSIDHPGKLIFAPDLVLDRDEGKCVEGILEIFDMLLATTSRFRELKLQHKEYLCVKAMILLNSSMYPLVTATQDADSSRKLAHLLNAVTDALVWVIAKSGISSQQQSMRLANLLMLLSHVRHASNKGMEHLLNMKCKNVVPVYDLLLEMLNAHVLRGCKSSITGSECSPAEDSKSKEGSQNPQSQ

Structure (SMILES): CC(C)=CCc1c(O)cc(O)c2c1O[C@H](c1ccc(O)cc1)CC2=O
- pEC50 (Estrogen receptor beta [1]): 8.30

Structure (SMILES): CCCc1c(-c2ccc(O)cc2)nn(-c2ccc(O)cc2)c1-c1ccc(O)cc1 [PROPYLPYRAZOLETRIOL]
- EC50 (Estrogen receptor beta [2]): Not Active
- Emax at 96 h [3]: 119%
- pEC50 (Estrogen receptor [4]): 9.00

- Activity (Estrogen receptor [5]): Not Active
Structure (SMILES): COc1cc(O)c(C(=O)/C=C/c2ccc(O)cc2)cc1CC=C(C)C
